“Also recorded” adds a separate entry of the source.
Legend:
[1] = system: C57B16 mice; assay: Water maze spatial learning; format: in vivo; settings: i.p. once daily prior to testing, FIG. 6
Method: The Morris water maze (MWM) is a test of spatial learning for rodents that relies on distal cues to navigate from start locations around the perimeter of an open swimming arena to locate a submerged escape platform. Spatial learning is assessed across repeated trials and reference memory is determined by preference for the platform area when the platform is absent.
The test apparatus consists of a large circular pool (1 m diameter, 80 cm high, temperature 26° C.) with a platform (11 cm diameter) submerged 1.5 cm below the surface. Both the pool and the platform were constructed of black polyvinyl plastic, which offered no intra-maze cues. The experimental room contained several extra-maze visual cues. During training the platform was hidden in the same quadrant 30 cm away from the edge of the maze. There were five trials, each of them beginning with the rat facing the wall of the maze in one of three different locations. The time taken for the rat to find the platform within a 90s period was recorded. Probe trials where the platform was removed from the maze and the time the animal spent in the target quadrant were also performed. […]
Finally, drugs inducing neurobehavioural profile are evaluated in the water maze spatial learning paradigm, a robust task of information acquisition and consolidation—a measure of cognitive action

[2] = system: rats reared in isolation; assay: Pre-pulse inhibition (PPI) of the startle response in rats reared in isolation; format: in vivo; settings: 20 mg/kg, p<0.05, two-way ANOVA, FIG. 5B
Source text: This reduction or inhibition of startle is not observed in the isolated animals.
One of the most robust, non-invasive rodent models used for studies relating to schizophrenia is isolation rearing of rats (Weiss and Feldon, 2001; Fone and Porkess, 2008). […] PPI is used as an operational measure of sensorimotor gating and is known to be defective in schizophrenics (Swerdlow et al., 1994; Ludewig et al., 2002). […] Reduction or inhibition of startle is not observed in the isolated animals control.

[3] = system: C57B16 mice; assay: Neurobehavioural screening (modified SHIRPA protocol), neophobia; format: in vivo; settings: chronic administration protocol, 1 dose/day prior to testing
Method: The Experimental protocol employed in the behavioural evaluation of Meparfynol is outlined in FIG. 7. Two separate cohorts of C57B16 mice were employed. Cohort 1 was used to evaluate the drug effect on prepulse inhibition, open-field and novel object recognition. Cohort 2 was used to evaluate drug effects on spatial learning. The behavioural tests were administered in sequence as per day number indicated in the bar. The drug was administered by the intraperitoneal route and on the day of training the drug was administered after the behavioural analysis. Meparfynol/UCD-1216 was administered at doses of 20 and 50 mg/kg. The compounds were administered once daily, via the intraperitoneal route, for 7 days prior to testing and the animals were drug-free at time of training.
A modified SHIRPA protocol was adopted in order to provide an in vivo drug profile. The SHIRPA protocol is used in both academic and industrial environments for an initial behavioural characterisation of potential psychopharmaceuticals. The first behavioural tier analysis of our modified screen comprised open-field (FIG. 3), novel object recognition (NOR; FIG. 4), and pre-pulse inhibition (PPI; FIGS. 5A and 5B) paradigms. These psycho-pharmacological tests are described in more detail below: […]

[4] = system: receptors (cell lines that express only one type of receptor); assay: Novascreen receptor affinity screen (competition with a reference ligand); format: binding; settings: 1 μM Meparfynol, all top ranking receptors; FIG. 8C
Method: Analysis of receptor affinities was performed by Novascreen™ (www.novascreen.com) and those displacing >20% of the natural ligand are indicated by the filled boxes. Blood levels of Mepfarynol were determined by GC mass spectroscopy in separate samples taken from a cannulated jugular at increasing time intervals following a single intraperitoneal injection of the drug ([…]).
The higher the target inhibition value, the greater the affinity Meparfynol has for this particular receptor as it displaces a greater proportion of the reference ligand. This assay is an automated high throughput assay performed on cell lines that express only one type of receptor and was carried out by Novascreen (www.novascreen.com).

[5] = system: C57B16 mice; assay: Pre-pulse inhibition (PPI) of the startle response in mice; format: in vivo; settings: 20 mg/kg i.p., FIG. 5A
Source text: Prepulse inhibition is a procedure whereby a preceding stimulus attenuates the startle response. The reduced ability to filter out irrelevant auditory stimulation is a characteristic which is thought to contribute to certain manifestations of conditions including inattention, distractibility, and cognitive deficits. The test is quite useful for evaluating transgenic models of schizophrenia as well as to screen potential antipsychotic drugs.
An example of one way of testing for PPI: In the prepulse inhibition (PPI) procedure, the rodent is placed in a small chamber and exposed to a brief pulse of noise. […]
The main three parts of the procedure are prepulse, startle stimulus, and startle reflex. […] Startle response is measured in rodents using the so-called automated “startle chambers” or “stabilimeter chambers”, with detectors recording whole-body reaction. In humans, the movements of oculomotor muscles (“eye-blink reflex” or “eye-blink response” assessed using electromyographic recording of orbicularis oculi muscle and by oculography) could be used as a measure. […]
Mepfarynol was administered by the intraperitoneal route at the doses indicated and as per details outlined above. Values were analysed using a two way ANOVA and Student t-test and those with a p value<0.05 were accepted as significant and where appropriate are indicated with an asterisk.

[6] = system: C57B16 mice; assay: Novel object recognition (NOR) test; format: in vivo; settings: FIG. 4
Source text: This test is useful for evaluating the role of experimental manipulations on cognition. The recognition test is based on the natural tendency of rodents to investigate a novel object instead of a familiar one. The choice to explore the novel object reflects the use of learning and (recognition) memory processes. Novel Object Recognition (NOR) is based on the premise that rodents will explore a novel object more than a familiar one, but only if they remember the familiar one. This tendency is actually shared by humans, as looking time is often used to make inferences about an infant's memory in the absence of explicit, verbal recognition.
Before training the animals with objects, they are first allowed to acclimatise to the testing environment, a white Perspex box (30 cm by 20 cm) equipped with an overhead camera. After an acclimation session, the animals are ready for the training stage. […]
The amount of time that the rodents spends exploring each object can be calculated by hand or by using a computer program receiving input from the overhead camera. […]

[7] = system: C57B16 mice; assay: Open field test; format: in vivo; settings: 20 and 50 mg/kg i.p. once daily for 7 days prior to testing, FIG. 3
Source text: The Open Field test is designed to measure behavioural responses such as locomotor activity, hyperactivity, and exploratory behaviors. Open Field is also used as a measure of anxiety. Rats and mice tend to avoid brightly illuminated, novel, open spaces, so the open field environment acts as an anxiogenic stimulus and allows for measurement of anxiety-induced locomotor activity and exploratory behaviours. Open field testing is a one trial test with little or no impact on the animal's subsequent behaviour. The apparatus for the Open Field test was a square (100 cm by 100 cm) made of white Perspex. Each rat is placed in a corner of the field and its behaviour recorded for five minutes. All activity is recorded by a video camera mounted above the open field and scored in real-time (or digitized and scored later) by the advanced motion-recognition software package Ethovision by Noldus, that detects and analyzes the movements of the rat or mouse. The total distance, average speed, rearing/elongation behaviour, and time spent in various parts of the field (such as, for example, the border areas vs. the open, middle area) is measured and analysed. Testing is carried out in a temperature, noise and light controlled room.
The Experimental protocol employed in the behavioural evaluation of Meparfynol is outlined in FIG. 7. Two separate cohorts of C57B16 mice were employed. […]

[8] = in vivo; cited from earlier work
[9] = system: frontal cortex; settings: after administration; Society for Neuroscience meeting November 2000; cited from earlier work

With `C#C[C@](C)(O)CC` (stereo in doubt) [Meparfynol, 3-methylpent-1-yn-3-ol] the “spatial learning in the water maze” value [1] was “enhanced spatial learning; also recorded: significant pro-cognitive actions”, the “pre-pulse inhibition of startle response” value [2] was “significantly enhances” and the “neophobia (fear of anything new)” value [3] was “reduced neophobia”. The “percent target inhibition (reference ligand prevented from binding)” value [4] was “less than 20%”, the “pre-pulse inhibition of startle response” value [5] was “significantly enhances” and the “working memory as measured by the NOR test (exploratory bias for the novel object)” value ([6]; 20 and 50 mg/kg i.p. once daily for 7 days prior to testing) was “modest enhancement”. For the same compound, the “novel object exploratory time” value ([6]; compared to the vehicle-treated controls) was “significantly reduced” and the “effect in the open-field paradigm (locomotor activity)” value [7] was “little effect”.
In the case of `CC12CC3CC(C)(C1)CC(N)(C3)C2` [Memantine, 1-amino-3,5-dimethyl adamantane], the “administered dose excreted unchanged in urine” value [8] is given as 57-82%.
In the case of `COc1ccc(NS(=O)(=O)c2sc3ccc(Cl)cc3c2C)cc1N1CCNCC1` [SB-271046], the “glutamate and aspartate levels in the frontal cortex” value [9] is given as “significant increase” and the “noradrenaline, dopamine or 5-HT levels” value [9] is given as “without affecting”.

Reference: US20110034565A1, “PSYCHO-PHARMACEUTICALS” (University College Dublin, National University of Ireland, …, priority 2008, published 2011)
